From PubChem BioAssay (NCI)
Several values for one entry are separate records, joined by “and”; a condition that tells them apart may be missing. Identical values can stand only once.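 Dose response: 5 concentrations. Exposure: 48 h. Format: 96-well plates. Endpoint: linear interpolation; highest concentration if not reached. Abbreviation: GI50, concentration required for 50% inhibition of growth. At the TGI there is no net growth.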

What was measured:
Test in all cases: NCI-60 cell line screen, 48 h
[1] = system: RPMI-8226 leukemia
[2] = system: SF-295 CNS
[3] = system: MOLT-4 leukemia
[4] = system: OVCAR-8 ovarian
[5] = system: SK-OV-3 ovarian
[6] = system: SN12C renal
[7] = system: HOP-62 NSCLC
[8] = system: HOP-92 NSCLC
[9] = system: MDA-MB-435
[10] = system: LOX IMVI melanoma
[11] = system: SNB-19 CNS
[12] = system: MDA-N
[13] = system: NCI-H23 lung
[14] = system: HS 578T breast
[15] = system: KM12 colon
[16] = system: COLO 205 colon
[17] = system: UO-31 renal
[18] = system: SW-620 colon
[19] = system: NCI-H522 lung
[20] = system: NCI-H460 lung
[21] = system: T-47D breast
[22] = system: A549 NSCLC
[23] = system: TK-10 renal
[24] = system: A498 renal
[25] = system: U251 CNS
[26] = system: SK-MEL-2 melanoma
[27] = system: DU-145 prostate
[28] = system: SF-268 CNS
[29] = system: SK-MEL-5 melanoma
[30] = system: HCC-2998 colon
[31] = system: 786-0 renal
[32] = system: CCRF-CEM leukemia
[33] = system: SR leukemia
[34] = system: CAKI-1 renal
[35] = system: EKVX NSCLC
[36] = system: BT-549 breast
[37] = system: MCF7 breast
[38] = system: SF-539 CNS
[39] = system: OVCAR-5 ovarian
[40] = system: MALME-3M melanoma
[41] = system: NCI/ADR-RES ovarian
[42] = system: HCT-15 colon
[43] = system: OVCAR-3 ovarian
[44] = system: HCT-116 colon
[45] = system: IGROV1 ovarian
[46] = system: OVCAR-4 ovarian
[47] = system: PC-3 prostate
[48] = system: ACHN renal
[49] = system: HL-60(TB) leukemia
[50] = system: SK-MEL-28 melanoma
[51] = system: MDA-MB-231 breast
[52] = system: SNB-75 CNS
[53] = system: RXF 393 renal
[54] = system: UACC-257 melanoma
[55] = system: K-562 leukemia
[56] = system: M14 melanoma
[57] = system: NCI-H226 lung
[58] = system: HT29 colon
[59] = system: UACC-62 melanoma

CN1CCN(CCCN2c3ccccc3Sc3ccc(Cl)cc32)CC1
GI50 [1]: 6.16 µM | TGI [1]: 16 µM | GI50 [2]: 6 µM and 33.2 µM | TGI [2]: 12.8 µM and 55.6 µM | GI50 [3]: 3.8 µM | TGI [3]: 11.5 µM | GI50 [4]: 7.39 µM and 42.8 µM | TGI [4]: 14.8 µM | GI50 [5]: 6.93 µM | TGI [5]: 13.8 µM | GI50 [6]: 5.83 µM and 56.8 µM | TGI [6]: 12.8 µM | GI50 [7]: 6.32 µM and 48.5 µM | TGI [7]: 13.6 µM and 85.6 µM | GI50 [8]: 0.894 µM | TGI [8]: 5.25 µM | TGI [9]: 6.02 µM and 58.6 µM | GI50 [10]: 4.75 µM | TGI [10]: 11.6 µM | GI50 [11]: 7.05 µM and 60.7 µM | TGI [11]: 14.3 µM | GI50 [12]: 42.1 µM | TGI [12]: 61.4 µM | TGI [13]: 12 µM | TGI [14]: 13.5 µM and 83.2 µM | TGI [15]: 12.4 µM and 95.2 µM | GI50 [16]: 4.37 µM and 36.6 µM | TGI [16]: 11.6 µM and 51.1 µM | TGI [17]: 9.49 µM | GI50 [18]: 5.72 µM and 41.8 µM | TGI [18]: 12 µM and 62.5 µM | GI50 [19]: 42 µM | TGI [19]: 56.8 µM | TGI [20]: 11.4 µM and 80.5 µM | GI50 [21]: 5.72 µM and 35.5 µM | TGI [21]: 13 µM and 62.6 µM | GI50 [22]: 6.5 µM and 56.8 µM | TGI [22]: 13.7 µM | GI50 [23]: 7.18 µM and 51.8 µM | TGI [23]: 14.1 µM and 89 µM | TGI [24]: 5.82 µM and 31.6 µM | TGI [25]: 11.8 µM and 87.3 µM | GI50 [26]: 40.9 µM | TGI [26]: 59.5 µM | GI50 [27]: 6.53 µM and 50.9 µM | TGI [27]: 13.5 µM and 94.6 µM | GI50 [28]: 5.27 µM | TGI [28]: 12 µM | GI50 [29]: 48.5 µM | TGI [29]: 62 µM | GI50 [30]: 3.53 µM | TGI [30]: 10.3 µM | GI50 [31]: 6.15 µM and 38 µM | TGI [31]: 12.8 µM and 61.4 µM | GI50 [32]: 6.46 µM | TGI [32]: 15.1 µM | GI50 [33]: 2.99 µM | TGI [33]: 11.3 µM | TGI [34]: 9.02 µM and 74.2 µM | GI50 [35]: 5.46 µM | TGI [35]: 12.4 µM | GI50 [36]: 6.56 µM | TGI [36]: 13.4 µM | GI50 [37]: 5.79 µM and 47.1 µM | TGI [37]: 14 µM and 63 µM | GI50 [38]: 7.49 µM and 51.6 µM | TGI [38]: 14.6 µM and 87.9 µM | GI50 [39]: 7.09 µM and 43.1 µM | TGI [39]: 14 µM and 62.9 µM | GI50 [40]: 6.01 µM and 39.7 µM | TGI [40]: 14.3 µM and 55.9 µM | GI50 [41]: 6 µM and 44.5 µM | TGI [41]: 12.8 µM and 78.6 µM | GI50 [42]: 5.12 µM and 48 µM | TGI [42]: 11.5 µM and 77.8 µM | GI50 [43]: 5.94 µM and 55.2 µM | TGI [43]: 12.8 µM | GI50 [44]: 5.15 µM and 39.9 µM | TGI [44]: 12 µM and 54.2 µM | TGI [45]: 11.7 µM and 67.3 µM | GI50 [46]: 5.74 µM | TGI [46]: 12.4 µM | GI50 [47]: 3.39 µM | TGI [47]: 10.4 µM and 80.7 µM | GI50 [48]: 5.93 µM | TGI [48]: 12.4 µM | GI50 [49]: 8.85 µM | TGI [49]: 17.9 µM

C/C=C\C(CC(=O)OC)CC(=O)N(CCC1CN(S(=O)(=O)C(F)(F)F)c2ccccc21)Cc1ccc(OC)cc1OC (stereo not given)
TGI [1]: > 100 µM | TGI [2]: > 100 µM | TGI [3]: > 100 µM | TGI [5]: > 100 µM | TGI [6]: > 100 µM | TGI [50]: > 100 µM | TGI [7]: > 100 µM | TGI [8]: > 100 µM | TGI [9]: > 100 µM | TGI [10]: > 100 µM | TGI [11]: > 100 µM | TGI [51]: > 100 µM | TGI [12]: > 100 µM | TGI [13]: > 100 µM | TGI [15]: > 100 µM | TGI [16]: > 100 µM | TGI [17]: > 100 µM | TGI [18]: > 100 µM | TGI [19]: > 100 µM | TGI [20]: > 100 µM | TGI [21]: > 100 µM | TGI [22]: > 100 µM | TGI [23]: > 100 µM | TGI [24]: > 100 µM | TGI [25]: > 100 µM | TGI [26]: > 100 µM | TGI [52]: > 100 µM | TGI [28]: > 100 µM | TGI [29]: > 100 µM | TGI [30]: > 100 µM | TGI [31]: > 100 µM | TGI [34]: > 100 µM | TGI [53]: > 100 µM | TGI [35]: > 100 µM | TGI [36]: > 100 µM | TGI [37]: > 100 µM | TGI [38]: > 100 µM | TGI [39]: > 100 µM | TGI [40]: > 100 µM | TGI [41]: > 100 µM | TGI [42]: > 100 µM | TGI [43]: > 100 µM | TGI [44]: > 100 µM | TGI [45]: > 100 µM | TGI [54]: > 100 µM | TGI [55]: > 100 µM | TGI [56]: > 100 µM | TGI [57]: > 100 µM | TGI [46]: > 100 µM | TGI [47]: > 100 µM | TGI [48]: > 100 µM

CC(C)(C)n1c(=O)n2n(c1=O)C1c3cccc4cccc(c34)C2C2c3cccc4cccc(c34)C1n1c(=O)n(C(C)(C)C)c(=O)n12
TGI [1]: > 100 µM | TGI [2]: > 100 µM | TGI [3]: > 100 µM | TGI [4]: > 100 µM | TGI [5]: > 100 µM | TGI [6]: > 100 µM | TGI [50]: > 100 µM | TGI [7]: > 100 µM | TGI [8]: > 100 µM | TGI [9]: > 100 µM | TGI [10]: > 100 µM | TGI [11]: > 100 µM | TGI [51]: > 100 µM | TGI [12]: > 100 µM | TGI [13]: > 100 µM | TGI [14]: > 100 µM | TGI [15]: > 100 µM | TGI [16]: > 100 µM | TGI [17]: > 100 µM | TGI [18]: > 100 µM | TGI [19]: > 100 µM | TGI [20]: > 100 µM | TGI [21]: > 100 µM | TGI [22]: > 100 µM | TGI [23]: > 100 µM | TGI [24]: > 100 µM | TGI [25]: > 100 µM | TGI [26]: > 100 µM | TGI [52]: > 100 µM | TGI [27]: > 100 µM | TGI [28]: > 100 µM | TGI [29]: > 100 µM | TGI [30]: > 100 µM | TGI [31]: > 100 µM | TGI [32]: > 100 µM | TGI [58]: > 100 µM | TGI [34]: > 100 µM | TGI [35]: > 100 µM | TGI [36]: > 100 µM | TGI [37]: > 100 µM | TGI [38]: > 100 µM | TGI [39]: > 100 µM | TGI [40]: > 100 µM | TGI [59]: > 100 µM | TGI [41]: > 100 µM | TGI [42]: > 100 µM | TGI [43]: 60 µM | TGI [44]: > 100 µM | TGI [45]: > 100 µM | TGI [54]: > 100 µM | TGI [55]: > 100 µM | TGI [56]: > 100 µM | TGI [57]: > 100 µM | TGI [47]: > 100 µM | TGI [48]: > 100 µM | TGI [49]: > 100 µM
